Experimental data taken from patent US7943599B2 (priority 2005, dated 2011).
Read-outs that look alike come from different tables or passages of the source.

What was measured:
[1] = system: Human keratinocytes (HaCat); format: cell-based; conditions: for Malonaldehyde and 4-hydroxy alkenal: HaCat, untreated group taken as 100
Experimental: Human keratinocytes (HaCat) were plated at a density of 1.0×10^6 per 60-mm dish and then cultured in penicillin/streptomycin-containing DMEM (10% FBS) media at conditions of 37° C. and 5% CO2 for 1 week. Then, the culture media were treated with 10^−4 M of each of sesamol, the sesamol derivative of Example 1, and tocopherol as appositive control, for 24 hours. At the next day, the media were treated with 4 mM of t-BHP (t-butyl hydroperoxide) together with each of said compounds and then cultured at conditions of 37° C. and 5% CO2 for 4 hours, after which the cells were collected. The collected cells were dissolved by repeatedly performing freezing/thawing processes, and the following tests were performed in accordance with the method described in an assay kit.
In other words, in the present invention, a lipid peroxide assay kit (Calbiochem) was used as a reagent, and lipid peroxidation was measured using the principle in which long-chain unsaturated fatty acids such as malonaldehyde and 4-hydroxy alkenal form stable compounds at 586 nm by reaction with said reagent. The measurement results are shown in Table 1 below in comparison with an untreated group taken as 100.

[2] = system: Fibroblasts; format: cell-based; conditions: 10^-4 M; for Procollagen Synthesis (%): 24 h, serum-free media, untreated group taken as 100%
Experimental: Fibroblasts were seeded into each well of a 24-well plate at density of 10^6 cells and cultured to 90% confluence. The cultured cells were cultured in serum-free media for 24 hours and then treated with 10^−4 M of each of tocopherol, sesamol and the sesamol derivative of Example 1, which have been dissolved in serum-free media. Then, the cells were cultured in a CO2 incubator for 24 hours. The supernatants of the cell culture media were collected and observed for an increase or decrease in procollagen using a Procollagen type (A) kit. The test results are shown in Table 2 below, in which the effect of each compound on the procollagen synthesis is compared with that of an untreated group, taken as 100%.

[3] = system: alkaline phosphatase; experiment: Hydrolysis by phosphatase in phosphate buffer, HPLC of 3-aminopropane phosphoric acid formed; format: in vitro ADME; conditions: alkaline phosphatase (Sigma-Aldrich), phosphate buffer pH 7.4, HPLC, FIG. 1
Experimental: In order to examine whether the sesamol, 3-aminopropane phosphoric acid diester is hydrolyzed by phosphatase present on the skin into sesamol and 3-aminopropane phosphoric acid, the following test was performed. The sesamol, 3-aminopropane phosphoric acid diester of Example 1 and phsophatase were added in phosphate buffer (pH 7.4), followed by hydrolysis. As the phosphatase, alkaline phosphatase commercially available from Sigma-Aldrich Co. was used. The amount of 3-aminopropane phosphoric acid formed as the hydrolysis progressed was measured by HPLC (high-performance liquid chromatography), and the measurement results are shown in FIG. 1.

[4] = 10^-4 M compound 24 h, then 4 mM t-BHP together with compound 4 h

Compound | Malonaldehyde and 4-hydroxy alkenal ([1]; 4 mM t-BHP alone, 4 h) | Procollagen Synthesis (%) [2] [%] | Malonaldehyde and 4-hydroxy alkenal [1, 4] | hydrolysis by phosphatase into sesamol and 3-aminopropane phosphoric acid [3] | effect on collagen biosynthesis (in words) ([2]; fibroblasts) | antioxidant effect (in words) ([1]; 10^-4 M, t-BHP-treated HaCat, compared with sesamol and tocopherol)
CC(C)(C)OO [t-BHP, t-butyl hydroperoxide] | 320 |  |  |  |  | 
tocopherol |  | 110 | 270 |  |  | 
Oc1ccc2c(c1)OCO2 [Sesamol, sesamol] |  | 103 | 250 |  |  | 
NCCCOP(=O)(O)Oc1ccc2c(c1)OCO2 [Sesamol derivative of Example 1, sesamol, 3-aminopropane phosphoric acid diester (I)] |  | 125 | 260 | can be hydrolyzed by phosphatase | showed the effect of increasing collagen biosynthesis | antioxidant effect similar to those of sesamol and the positive control tocopherol
